Experimental data reported in paper PMC11822723 (ACS Omega, 2025).
Values after ≈ are worked out from the molar mass of the structure shown. Read-outs that look alike come from different tables or passages of the source.

Key:
[1] = Aqueous solubility measurements (stepwise solvent addition, stereo microscope); format: physicochemical; conditions: for solubility: thermodynamic from solid, read-out: solubility, conc.
Text: Thus, the impact of the pH value on the solubilities of the Ox-Ibu-PIP-X-Mal complexes was investigated. Commercially available 0.9% NaCl has a pH of roughly 5, but when acidified to pH 3, the solubilities of both Ox-Ibu-PIP-X-Mal complexes increased by a factor of 1.5. […] Expectedly, using phosphate buffer or phosphate-buffered saline (PBS) at pH 7.4 further decreased the solubility.
5% glucose and 0.9% NaCl solutions were purchased from B. Braun. 0.9% NaCl solutions were acidified to pH 3.0 using 1 M HCl and basified to pH 7.0 using 1 M NaOH. Aqueous buffers (citrate, PB, PBS) were prepared in 100 mM concentrations. One mg of compound was weighted using a Sartorius ME215P analytical balance and the solubility was investigated according to the following stepwise interval: +1 μL in the volume range 0–10 μL; +10 μL in the volume range 10–100 μL; +100 μL in the volume range 100–1000 μL; +1000 μL in the volume range 1000–5000 μL. Dissolution of the sample was investigated using a Leica M80 routine stereo microscope (50× magnification) until no solid particles were observed.

albumin = biological target: T1, albumin (Bos taurus, UniProt P02769); experiment: Albumin binding in phosphate-buffered fetal calf serum, 195Pt traces by SEC-ICP-MS; format: in vitro ADME; conditions: for bound to albumin after 1 h of incubation / bound to albumin at time point 0: 100 μM in FCS (150 mM phosphate buffer, pH 7.4), 37 °C
T1 construct: Serum proteins (including albumin) have a retention time of 2–4 min, with the albumin fraction eluting at 4.0 min; tissue Sigma-Aldrich; host or cells: fetal calf serum (whole serum, buffered with 150 mM phosphate pH 7.4)
T1 sequence (P02769 25-607): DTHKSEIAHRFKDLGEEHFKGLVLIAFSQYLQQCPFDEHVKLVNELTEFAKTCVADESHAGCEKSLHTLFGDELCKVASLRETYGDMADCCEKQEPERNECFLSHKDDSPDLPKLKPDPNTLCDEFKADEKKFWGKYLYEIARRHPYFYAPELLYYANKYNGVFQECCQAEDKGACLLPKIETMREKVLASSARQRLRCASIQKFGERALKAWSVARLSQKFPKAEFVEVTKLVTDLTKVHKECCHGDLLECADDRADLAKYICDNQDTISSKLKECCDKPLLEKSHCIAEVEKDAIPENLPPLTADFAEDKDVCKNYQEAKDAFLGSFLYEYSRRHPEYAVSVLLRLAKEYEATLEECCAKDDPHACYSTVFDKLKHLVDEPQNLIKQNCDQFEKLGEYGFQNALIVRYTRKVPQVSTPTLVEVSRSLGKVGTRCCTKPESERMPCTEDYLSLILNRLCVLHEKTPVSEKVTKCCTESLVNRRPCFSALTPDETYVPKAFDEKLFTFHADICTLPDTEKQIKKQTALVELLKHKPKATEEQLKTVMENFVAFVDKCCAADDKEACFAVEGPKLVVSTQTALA
Protocol: Subsequently, it was of interest how the observed divergent maleimide hydrolysis rates impact the albumin binding kinetics. Therefore, the different platinum(IV) complexes were incubated in phosphate-buffered fetal calf serum (FCS) at 37 °C over 25 h and ^195Pt traces were measured via size-exclusion chromatographyinductively coupled plasma mass spectrometry (SEC-ICP-MS). Serum proteins (including albumin) have a retention time of 2–4 min, with the albumin fraction eluting at 4.0 min (Figure S1) as part of the high-molecular weight fraction (HMWF) and unbound platinum(IV) complexes elute in the low-molecular weight fraction (LMWF) with retention times usually >5 min. Already at time point 0, ∼60% of Ox-OAc-PEG4-Mal (tR = 6.4 min) was bound to albumin at 4.0 min in the HMWF, which increased to ∼90% after 1 h of incubation (Figure 2A). The remaining 10% of the parental complex (at tR > 5 min) most likely either contained a hydrolyzed maleimide moiety, unable to bind albumin, or were conjugated to low-molecular weight sulfur-containing compounds. The formed platinum(IV)-albumin conjugate remained stable for more than 25 h. […] In the LMWF, only a small peak of still intact Ox-OAc-PIP-C2-Mal (tR 6.5 min) could be observed, while a major signal (∼35%) of most likely already hydrolyzed maleimide compound appeared at tR 5.8 min. This is in very good agreement with the very fast hydrolysis of the maleimide moiety shown above (see Figure 1).
FCS was purchased from Sigma-Aldrich and buffered with 150 mM phosphate pH 7.4 in order to guarantee a stable pH. The platinum(IV) complexes (5 mM) were dissolved in 150 mM phosphate buffer (pH 7.4) and diluted […] in the buffered serum to obtain a final concentration of 100 μM. The samples were incubated in the autosampler at 37 °C and analyzed at 0, 1, 4, 24, and 25 h time points. Between each sample a pure water blank was measured. For SEC-ICP-MS measurements an Agilent 1260 Infinity system coupled to an Agilent 7800 ICP-MS equipped with a dynamic reaction cell was used. Oxygen (purity 5.5, Messer Austria GmbH, Gumpoldskirchen, Austria) was used as reaction gas.

[2] = Hydrolytic stability of the maleimide in phosphate buffer, UHPLC; format: physicochemical; conditions: 1 mM, 150 mM phosphate buffer pH 7.4, 20 °C
Protocol: It is known from literature that most maleimides are prone to hydrolysis at physiological pH.[38] Consequently, the hydrolytic stabilities of the three oxaliplatin(IV)-acetato complexes bearing the piperazine maleimides were studied in comparison to the reference complex Ox-OAc-PEG4-Mal. The hydrolysis of the platinum(IV)-acetato complexes was investigated in phosphate buffer at pH 7.4 and 20 °C over 5 h and the amount of remaining intact parental complex was monitored with ultrahigh-performance liquid chromatography (UHPLC) (Figure 1). Ox-OAc-PIP-C2-Mal hydrolyzed rapidly, with only traces of intact platinum(IV)-maleimide remaining after 1 h incubation time. […] These dramatic differences are in line with some model maleimide compounds reported in literature, also containing piperazine moieties.[38] The strong inductive effects of the protonated quaternary nitrogen of the piperazine can explain the extremely fast hydrolysis of Ox-OAc-PIP-C2-Mal.
Phosphate buffer (150 mM, pH 7.4) containing 1 mM platinum compound was incubated at 20 °C. The reaction was monitored on a Thermo Scientific Dionex UltiMate 3000 UHPLC-system using a Waters Acquity UPLC BEH C18 1.7 μm 3.0 mm × 50 mm column. Milli-Q water, containing 0.1% formic acid, and acetonitrile containing 0.1% formic acid were used as eluents. A gradient of 5–95% over 5 min was used. […]

[3] = 0.9% NaCl solution, pH 5, saline or isotonic, 0.9% NaCl
[4] = 5% glucose solution, saline or isotonic, 5% glucose

| SMILES | solubility [1, 3] [mM] | solubility [1, 4] [mM] | bound to albumin after 1 h of incubation (albumin) [%] | bound to albumin at time point 0 (albumin) [%] | other results |
| --- | --- | --- | --- | --- | --- |
| CC(=O)[O][Pt]12([O]C(=O)NCCOCCOCCOCCOCCN3C(=O)C=CC3=O)([NH][C@@H]3CCCC[C@H]3[NH]1)[O]C(=O)C(=O)[O]2 [Ox-OAc-PEG4-Mal, (OC-6–34)-Acetato-[(1R,2R)-1,2-cyclohexanediamino][(14-(2,5-dioxo-2,5-dihydro-1H-pyrrol-1-yl)-3,6,9,12-tetraoxatetradecyl)carbamato]oxalatoplatinum(IV)] | – | – | ~90 | ~60 | time the formed platinum(IV)-albumin conjugate remained stable (albumin; FCS, pH 7.4, 37 °C): over 25 h; remaining parental complex not bound to albumin (tR > 5 min) (albumin; FCS, pH 7.4, 37 °C, after 1 h): 10%; intact maleimide / intact complex remaining after 5 h incubation [2]: ~70% |
| CC(=O)[O][Pt]12([O]C(=O)NCCN3CCN(CCN4C(=O)C=CC4=O)CC3)([NH][C@@H]3CCCC[C@H]3[NH]1)[O]C(=O)C(=O)[O]2 [Ox-OAc-PIP-C2-Mal, (OC-6–34)-Acetato-[(1R,2R)-1,2-cyclohexanediamino][(2-(4-(2-(2,5-dioxo-2,5-dihydro-1H-pyrrol-1-yl)ethyl)piperazin-1-yl)ethyl)carbamato]oxalatoplatinum(IV)] | – | – | – | ~60 | signal of most likely already hydrolyzed maleimide compound in LMWF (tR 5.8 min) (albumin; FCS, pH 7.4, 37 °C): ~35%; course of albumin binding over time (albumin; FCS, pH 7.4, 37 °C, over 25 h): did not further increase over time |
| CC(=O)[O][Pt]12([O]C(=O)NCCN3CCN(CCCCCN4C(=O)C=CC4=O)CC3)([NH][C@@H]3CCCC[C@H]3[NH]1)[O]C(=O)C(=O)[O]2 [Ox-OAc-PIP-C5-Mal, (OC-6–34)-Acetato-[(1R,2R)-1,2-cyclohexanediamino][(2-(4-(5-(2,5-dioxo-2,5-dihydro-1H-pyrrol-1-yl)pentyl)piperazin-1-yl)ethyl)carbamato]oxalatoplatinum(IV)] | – | – | ~95 | 69 | – |
| CC(=O)[O][Pt]12([O]C(=O)NCCN3CCN(CCOCCN4C(=O)C=CC4=O)CC3)([NH][C@@H]3CCCC[C@H]3[NH]1)[O]C(=O)C(=O)[O]2 [Ox-OAc-PIP-O-Mal, (OC-6–34)-Acetato-[(1R,2R)-1,2-cyclohexanediamino][(2-(4-(2-(2-(2,5-dioxo-2,5-dihydro-1H-pyrrol-1-yl)ethoxy)ethyl)piperazin-1-yl)ethyl)carbamato]oxalatoplatinum(IV)] | – | – | ~95 | 75 | – |

Further lines, with some results ahead:

| solubility [1, 3] [mM] | solubility [1, 4] [mM] | SMILES | bound to albumin after 1 h of incubation (albumin) [%] | bound to albumin at time point 0 (albumin) [%] | other results |
| --- | --- | --- | --- | --- | --- |
| 1300 (≈ 985 mg/mL) | 600 (≈ 455 mg/mL) | CC(C)[C@H](NC(=O)CCC(=O)NCCN1CCN(CCOCCN2C(=O)C=CC2=O)CC1)C(=O)N[C@@H](CCCNC(N)=O)C(=O)Nc1ccc(CO)cc1 [Mal-O-PIP-Succ-ValCitPAB-OH, N1-(2-(4-(2-(2-(2,5-Dioxo-2,5-dihydro-1H-pyrrol-1-yl)ethoxy)ethyl)piperazin-1-yl)ethyl)-N4-((S)-1-(((S)-1-((4-(hydroxymethyl)phenyl)amino)-1-oxo-5-ureidopentan-2-yl)amino)-3-methyl-1-oxobutan-2-yl)succinamide] | – | – | – |
| 1400 (≈ 1010 mg/mL) | 600 (≈ 431 mg/mL) | CC(C)[C@H](NC(=S)NCCN1CCN(CCOCCN2C(=O)C=CC2=O)CC1)C(=O)N[C@@H](CCCNC(N)=O)C(=O)Nc1ccc(CO)cc1 [Mal-O-PIP-ThioU-ValCitPAB-OH, (S)-2-((S)-2-(3-(2-(4-(2-(2-(2,5-Dioxo-2,5-dihydro-1H-pyrrol-1-yl)ethoxy)ethyl)piperazin-1-yl)ethyl)thioureido)-3-methylbutanamido)-N-(4-(hydroxymethyl)phenyl)-5-ureidopentanamide] | – | – | – |
| 1500 (≈ 1030 mg/mL) | 700 (≈ 481 mg/mL) | CC(C)[C@H](NC(=O)CCN1CCN(CCOCCN2C(=O)C=CC2=O)CC1)C(=O)N[C@@H](CCCNC(N)=O)C(=O)Nc1ccc(CO)cc1 [Mal-O-PIP-ValCitPAB-OH, (S)-2-((S)-2-(3-(4-(2-(2-(2,5-Dioxo-2,5-dihydro-1H-pyrrol-1-yl)ethoxy)ethyl)piperazin-1-yl)propanamido)-3-methylbutanamido)-N-(4-(hydroxymethyl)phenyl)-5-ureidopentanamide] | – | – | – |
| 40 (≈ 28.3 mg/mL) | 20 (≈ 14.1 mg/mL) | CC(C)C(NC(=O)CCOCCOCCOCCOCCN1C(=O)C=CC1=O)C(=O)NC(CCCNC(N)=O)C(=O)Nc1ccc(CO)cc1 (stereo not shown) [Mal-PEG4-ValCitPAB-OH, reference compound] | – | – | solubility, conc. ([1]; 0.9% NaCl): 35 mM (≈ 24.7 mg/mL); solubility, conc. ([1]; 5% glucose): 24 mM (≈ 17 mg/mL) |
